This note sets out measurements from PubChem BioAssay (NCI).

Test systems include EKVX NSCLC; HCT-116 colon; LOX IMVI melanoma; MALME-3M melanoma; MCF7 breast; OVCAR-4 ovarian; RPMI-8226 leukemia; SK-OV-3 ovarian; SR leukemia; TK-10 renal.
Common to all, as to assay: NCI anticancer screen, dose series, 48 h

Several values for one entry are separate records, joined by “and”; a condition that tells them apart may be missing. Equal values may be shown once.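 Growth conditions: 96-well plates. Treatment: test compound, 48 hours, 5 concentrations. Analysis: linear interpolation between bracketing concentrations; unreached endpoints set to highest concentration. GI50: concentration for 50% inhibition of growth. TGI denotes the concentration required for complete inhibition of growth.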

Regarding `CCN(CC)CCCCCCNc1cccc2cc(Br)cnc12`, the GI50 was 10.2 µM in the assay on EKVX NSCLC; 3.39 µM in the assay on HCT-116 colon; 2.64 µM with LOX IMVI melanoma; 2.46 µM in the assay on MALME-3M melanoma; 3.02 µM with MCF7 breast; 5.05 µM with OVCAR-4 ovarian. Besides, the GI50 in the assay with RPMI-8226 leukemia was 3.81 µM; with SK-OV-3 ovarian, 13.2 µM; in the assay on SR leukemia, 3.04 µM; in the assay on TK-10 renal it was 1.81 µM. Moreover, the TGI in the assay with EKVX NSCLC was 25.1 µM; in the assay on HCT-116 colon, 14.2 µM; in the assay on LOX IMVI melanoma, 8.07 µM; in the assay on MALME-3M melanoma, 5.13 µM; with MCF7 breast it was 11.2 µM; in the assay on OVCAR-4 ovarian it was 18.9 µM. For the same compound, the TGI in the assay with RPMI-8226 leukemia was 15.5 µM; with SK-OV-3 ovarian, 26.8 µM; with SR leukemia, 12.6 µM; in the assay with TK-10 renal, 3.89 µM.
As to `C=CC(=O)N1CN(C(=O)C=C)CN(C(=O)C=C)C1`, the GI50 in the assay with EKVX NSCLC was 9.02 µM; with HCT-116 colon, 1.77 µM; with LOX IMVI melanoma, 1.72 µM; in the assay with MALME-3M melanoma, 2.81 µM; with MCF7 breast it was 3.65 µM; in the assay on OVCAR-4 ovarian it was 5.06 µM. Moreover, the GI50 in the assay on RPMI-8226 leukemia was 2.29 µM; in the assay on SK-OV-3 ovarian, 26.8 µM; in the assay on SR leukemia, 2.46 µM; with TK-10 renal it was 2.36 µM. In addition, the TGI in the assay on EKVX NSCLC was determined as 26.2 µM; with HCT-116 colon, 3.33 µM; in the assay on LOX IMVI melanoma, 5.78 µM; with MALME-3M melanoma it was 7.2 µM; in the assay with MCF7 breast, 15.5 µM; in the assay with OVCAR-4 ovarian, 21.2 µM. For the same compound, the TGI with RPMI-8226 leukemia is 6.76 µM; with SK-OV-3 ovarian, more than 100 µM; with SR leukemia, 6.82 µM; in the assay with TK-10 renal, 5.7 µM.
Regarding `O=C1CCCN1c1ccccc1I(=O)=O`, the GI50 with EKVX NSCLC, in the assay with LOX IMVI melanoma, in the assay on MALME-3M melanoma, with MCF7 breast, in the assay with OVCAR-4 ovarian and with RPMI-8226 leukemia was more than 100 µM throughout. Further, the GI50 in the assay with SK-OV-3 ovarian was more than 100 µM; in the assay with SR leukemia it was 95.6 µM; in the assay on TK-10 renal, more than 100 µM. Further, the TGI in the assay with EKVX NSCLC, in the assay with LOX IMVI melanoma, in the assay on MALME-3M melanoma, with MCF7 breast, in the assay on OVCAR-4 ovarian and in the assay with RPMI-8226 leukemia was more than 100 µM throughout. The TGI with SK-OV-3 ovarian, in the assay with SR leukemia and in the assay on TK-10 renal was more than 100 µM in each case.
For the compound `Nc1cc2c(cc1Br)[nH]c(=O)c1ccccc12`, the GI50 is 4.18 µM in the assay with EKVX NSCLC; 2.91 µM in the assay with HCT-116 colon; 1.8 µM in the assay with LOX IMVI melanoma; 2.17 µM with MALME-3M melanoma; 1.83 µM in the assay with MCF7 breast; 2.55 µM with OVCAR-4 ovarian. Besides, the GI50 is 5.19 µM in the assay on RPMI-8226 leukemia, 10.1 µM with SK-OV-3 ovarian, 5.07 µM in the assay with SR leukemia and 4.27 µM in the assay on TK-10 renal. Besides, the TGI worked out at 35.1 µM in the assay on EKVX NSCLC; 25.5 µM in the assay with HCT-116 colon; 6.23 µM with LOX IMVI melanoma; 4.78 µM in the assay on MALME-3M melanoma; 11.4 µM in the assay with MCF7 breast; 38.5 µM in the assay on OVCAR-4 ovarian. Moreover, the TGI amounted to 42.3 µM with RPMI-8226 leukemia, 54.1 µM in the assay on SK-OV-3 ovarian, 47.2 µM with SR leukemia and 32.7 µM in the assay with TK-10 renal.
Consider `NNCCc1ccc(NC(=O)CCCc2ccc(C(=O)Nc3ccccc3N)cc2)cc1`, for which the GI50 with EKVX NSCLC was 51.1 µM; with HCT-116 colon, 2.75 µM; in the assay with LOX IMVI melanoma, 15.9 µM; with MALME-3M melanoma, 2.71 µM; with MCF7 breast it was 6.84 µM; in the assay on OVCAR-4 ovarian, 42.4 µM. For the same compound, the GI50 is 3.18 µM with RPMI-8226 leukemia, 18.2 µM with SK-OV-3 ovarian, 3.24 µM in the assay on SR leukemia and 2.03 µM with TK-10 renal. In addition, the TGI in the assay on EKVX NSCLC is more than 100 µM; in the assay with HCT-116 colon, more than 100 µM; in the assay on LOX IMVI melanoma it was more than 100 µM; in the assay on MALME-3M melanoma, 50.8 µM; in the assay with MCF7 breast it was more than 100 µM; in the assay on OVCAR-4 ovarian, more than 100 µM. Besides, the TGI in the assay with RPMI-8226 leukemia, with SK-OV-3 ovarian, in the assay with SR leukemia and in the assay with TK-10 renal was more than 100 µM in each case.
For the compound `CN(C)C(=S)SSC(=S)N(C)C`, the GI50 with EKVX NSCLC was 22 µM and > 73.4 µM and 18.6 µM; with LOX IMVI melanoma it was 14.9 µM and 5.4 µM and 22.7 µM; in the assay on MALME-3M melanoma, 16.3 µM; in the assay with MCF7 breast, 0.478 µM; in the assay on SK-OV-3 ovarian it was 37.1 µM and > 100 µM and 31.9 µM; with TK-10 renal it was 16.1 µM and > 100 µM and 26.4 µM. Also, the TGI with EKVX NSCLC is 96.3 µM and > 100 µM and 35.1 µM; with HCT-116 colon, 28.9 µM and 30.4 µM and > 55.9 µM; with LOX IMVI melanoma, 28.8 µM and 21.4 µM and > 55 µM; in the assay on MALME-3M melanoma it was 34.7 µM and 50.1 µM and 31 µM; in the assay on MCF7 breast, 22.7 µM and 39.3 µM and > 93.5 µM; with OVCAR-4 ovarian, 20.8 µM and 8.96 µM and 39.1 µM. The TGI is 49.1 µM and 16.1 µM and 58.9 µM in the assay on RPMI-8226 leukemia; more than 100 µM in the assay with SK-OV-3 ovarian; 74.6 µM and 27.8 µM and 34.8 µM in the assay with SR leukemia; 30.6 µM and > 100 µM and > 70.6 µM in the assay with TK-10 renal.
With `CCc1ccc2c(c1)C(=O)c1c-2n(CCCN=[N+]=[N-])c(=O)c2cc([N+](=O)[O-])ccc12`, the GI50 with EKVX NSCLC was more than 50 µM; in the assay with HCT-116 colon, more than 50 µM; in the assay on LOX IMVI melanoma, more than 50 µM; with MALME-3M melanoma, more than 50 µM; with MCF7 breast, more than 50 µM; in the assay with OVCAR-4 ovarian, 49.6 µM. Further, the GI50 with RPMI-8226 leukemia, in the assay with SR leukemia and in the assay with TK-10 renal was more than 50 µM throughout. Also, the TGI with EKVX NSCLC, in the assay on HCT-116 colon, with LOX IMVI melanoma, in the assay on MALME-3M melanoma, in the assay on MCF7 breast and in the assay on OVCAR-4 ovarian was more than 50 µM in each case. The TGI in the assay with RPMI-8226 leukemia, with SR leukemia and in the assay on TK-10 renal was more than 50 µM throughout.
For `CC1CC(O)C(=O)C(O[C@@H]2C[C@@H]3CC[C@@H]4[C@H](CC[C@]5(C)C(C6=CC(=O)OC6)CC[C@]45O)[C@@]3(C=O)C[C@H]2O)O1` (stereo partly specified), the TGI in the assay with EKVX NSCLC came out at 0.0542 µM; in the assay with HCT-116 colon, 0.0511 µM; with LOX IMVI melanoma, 0.0681 µM; in the assay on MALME-3M melanoma it was 0.0708 µM; in the assay with MCF7 breast, 0.152 µM; with RPMI-8226 leukemia, 0.246 µM. Moreover, the results for the TGI in the assay on SK-OV-3 ovarian, in the assay with SR leukemia and with TK-10 renal were 0.122 µM, 0.0792 µM and 0.173 µM, respectively.
